Patent EP0643069B1, “2'-DEOXY-2'-FLUOROCOFORMYCIN AND STEREOISOMERS THEREOF” (priority 1991, dated 1993)
Converted amounts (≈) assume the structure as drawn. Where two headings read alike, the source gives them in different places.

Legend:
Escherichia coli = assay: Antibacterial activity of formycin A against Escherichia coli on bouillon-agar medium, with and without test compound; format: cell-based; conditions: for growth of Escherichia coli where test compound had permeated medium containing formycin A: test compound 1 mcg/ml, formycin A 100 mcg/ml in bouillon-agar medium, about 37°C
Procedure: In this test, an aqueous solution of each of the compounds to be tested, i.e. FCF, e-FCF, Ara-FCF or Ara-e-FCF, at a concentration of 1 mcg/ml, was added in the form of several drops on the surface of a bouillon-agar medium containing formycin A at a concentration of 100 mcg/ml to form a circular film of the said aqueous solution thereon. Then, the medium was allowed to stand to make the test compound permeate into the bouillon-agar layer. Subsequently, a strain of Escherichia coli was inoculated on the overall surface of said medium and the inoculated medium was incubated at about 37°C.

mice [1] = conditions: intravenous administration, cited from earlier work
adenosine deaminase = biological target: T1, adenosine deaminase (Bos taurus, UniProt P56658); assay: Enzyme-inhibitory activity against adenosine deaminase (optical density at 265 nm); format: biochemical
T1 construct: purchased Sigma Chemical Type VI
T1 sequence (P56658 1-363): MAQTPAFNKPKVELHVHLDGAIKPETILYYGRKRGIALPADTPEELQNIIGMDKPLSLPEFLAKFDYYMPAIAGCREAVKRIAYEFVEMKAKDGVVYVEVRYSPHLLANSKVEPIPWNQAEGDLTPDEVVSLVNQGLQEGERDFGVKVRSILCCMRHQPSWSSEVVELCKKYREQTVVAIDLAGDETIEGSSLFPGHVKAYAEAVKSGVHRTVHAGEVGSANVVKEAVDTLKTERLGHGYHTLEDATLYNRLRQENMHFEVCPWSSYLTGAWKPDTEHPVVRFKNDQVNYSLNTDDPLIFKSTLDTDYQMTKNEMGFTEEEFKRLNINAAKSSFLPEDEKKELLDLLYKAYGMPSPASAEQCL
Procedure: The test of evaluating the inhibitory activity of each of the compounds against adenosine deaminase was carried out as given below.
Optical density of the reaction mixture obtained was measured with time (measured at the wave length of 265 nm), and the IC50 value of the tested compound against adenosine deaminase was calculated on the basis of decreases in the measured values of the optical density.

[2] = Stability in aqueous hydrochloric acid solution (pH 2), followed by thin-layer silica gel chromatography; format: physicochemical; conditions: water acidified with hydrochloric acid, pH 2, 25°C
Procedure: The test was carried out in accordance with the following method.
An aqueous solution (pH 2) of the test compound dissolved in water as acidified with hydrochloric acid was kept at 25°C, from which samples were taken out with time for analizing by thin-layer silica gel chromatography using acetonitrile-0.2 M aqueous ammonium chloride (3:1) as the development solvent. The spot of the test compound on the silica gel thin-layer was detected by using UV method, staining tests with conc. sulfuric acid and coloring tests with aqueous ammonium molybdate sulfuric acid solution, in combination, whereby the time (in hour) required for the test compound to disappear completely in the aqueous hydrochloric acid solution was determined. By way of comparison, coformycin and pentostatin were also tested by the same method.

[3] = tested on: Providencia rettgeri GN466; assay: Minimum growth-inhibitory concentration, standard serial dilution assay; format: cell-based
Procedure: (§1) That is, a test was conducted to measure the minimum growth-inhibitory concentrations (MIC, mcg/ml) of these compounds against some microorganisms using a standard serial dilution assay method.

Providencia sp. 2991 = assay: as above; format: cell-based
Procedure: as §1

mice [4] = assay: Acute toxicity in mice, intraperitoneal administration; format: in vivo; conditions: 100 mg/kg
[5] = phosphate buffer 0.05 M, pH 7.4, 25°C, 5 minutes pre-incubation, substrate adenosine, read-out: Enzyme-inhibitory activity, IC50

SMILES | Time (hours) required for complete disappearance of test compound in aqueous solution at pH 2 at 25°C [2] [hours] | IC50 (adenosine deaminase; [5]) [nM] | growth of Escherichia coli where test compound had permeated medium containing formycin A (Escherichia coli) | further results
Nc1ncnc2c([C@@H]3O[C@H](CO)[C@@H](O)[C@H]3O)n[nH]c12 [formycin A] |  |  |  | antibacterial activity against Escherichia coli (Escherichia coli; formycin A alone at 100 mcg/ml): no antibacterial activity
OC[C@H]1O[C@@H](n2cnc3c2N=CNC[C@H]3O)[C@H](O)[C@@H]1O [Coformycin, (8R)-3-(β-D-ribofuranosyl)-3,6,7,8-tetrahydroimidazo[4,5-d][1,3]diazepin-8-ol] | 10 |  |  | acute toxicity (death of mice) (mice [1]; 12.5 mg/kg): cause the death of mice; IC50 (adenosine deaminase): 1.7 nM
NC1O[C@H](CO)[C@@H](O)[C@H]1F (stereo partly drawn) [2-deoxy-2-fluoro-α,β-D-ribofuranosyl amine] |  |  |  | MIC [3]: 50 µg/mL (≈ 331 µM); MIC (Providencia sp. 2991): 100 µg/mL (≈ 662 µM)
OC[C@H]1O[C@@H](n2cnc3c2N=CNC[C@H]3O)[C@@H](F)[C@@H]1O [Ara-FCF, (8R)-3-(2-deoxy-2-fluoro-β-D-arabinofuranosyl)-3,6,7,8-tetrahydroimidazo [4,5-d][1,3]diazepin-8-ol] | 15 | 0.77 | the bacteria could not grow to form the circular inhibition zone | acute toxicity (death of mice) (mice [4]): no death of the mice
OC[C@H]1O[C@@H](n2cnc3c2N=CNC[C@H]3O)[C@H](F)[C@@H]1O [FCF, (8R)-3-(2-deoxy-2-fluoro-β-D-ribofuranosyl)-3,6,7,8-tetrahydroimidazo [4,5-d][1,3]diazepin-8-ol] | 15 | 17 | the bacteria could not grow to form the circular inhibition zone | 
NC1O[C@H](CO)[C@@H](O)[C@@H]1F (stereo partly drawn) [2-deoxy-2-fluoro-α,β-D-arabinofuranosyl amine] |  |  |  | MIC [3]: 50 µg/mL (≈ 331 µM); MIC (Providencia sp. 2991): 100 µg/mL (≈ 662 µM)
OC[C@H]1O[C@@H](n2cnc3c2NC=NC[C@H]3O)C[C@@H]1O [Pentostatin, 2'-deoxycoformycin, reference compound] | 1 |  |  | acute toxicity (body weight of tested mice) (mice [1]; 25 mg/kg): cause the decrease in the body weight of tested mice
OC[C@H]1O[C@@H](n2cnc3c2N=CNC[C@@H]3O)[C@@H](F)[C@@H]1O [Ara-e-FCF, (8S)-3-(2-deoxy-2-fluoro-β-D-arabinofuranosyl)-3,6,7,8-tetrahydroimidazo[4,5-d][1,3]diazepin-8-ol] |  | 2200 | the bacteria could not grow to form the circular inhibition zone | 
OC[C@H]1O[C@@H](n2cnc3c2N=CNC[C@@H]3O)[C@H](F)[C@@H]1O [e-FCF, (8S)-3-(2-deoxy-2-fluoro-β-D-ribofuranosyl)-3,6,7,8-tetrahydroimidazo [4,5-d][1,3]diazepin-8-ol] |  | 100 | the bacteria could not grow to form the circular inhibition zone | 
